Laboratory results from PubChem BioAssay (NCI).
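Grown in 96-well plates, cells were treated for 48 hours with each compound at five concentrations. Insufficient inhibition: endpoint recorded as highest concentration tested. TGI is the concentration that stops growth completely.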 Where a SMILES comes first, the peptide text is derived from it. The star is where a group is joined. OSu = O=C1CCC(=O)N1O*

Key:
Test in all cases: DTP human tumour cell line panel, 48 h
UACC-62 melanoma = tested on: UACC-62 melanoma
RXF 393 renal = tested on: RXF 393 renal
SK-MEL-2 melanoma = tested on: SK-MEL-2 melanoma
MDA-MB-231 breast = tested on: MDA-MB-231 breast
PC-3 prostate = tested on: PC-3 prostate
IGROV1 ovarian = tested on: IGROV1 ovarian
BT-549 breast = tested on: BT-549 breast
SK-MEL-5 melanoma = tested on: SK-MEL-5 melanoma
CAKI-1 renal = tested on: CAKI-1 renal
U251 CNS = tested on: U251 CNS
T-47D breast = tested on: T-47D breast

Row | SMILES | TGI (UACC-62 melanoma) | TGI (RXF 393 renal) | TGI (SK-MEL-2 melanoma) | TGI (MDA-MB-231 breast) | TGI (PC-3 prostate) | TGI (IGROV1 ovarian) | TGI (BT-549 breast) | TGI (SK-MEL-5 melanoma) | TGI (CAKI-1 renal) | TGI (U251 CNS) | TGI (T-47D breast)
1 | O=C(Nc1ccc2cc3ccccc3cc2c1)c1cc2c(cc1Cl)Sc1nccn1S2(=O)=O | > 100 µM | > 100 µM | > 100 µM | 60.1 µM | 52.6 µM | > 100 µM | > 100 µM | > 100 µM | > 100 µM | > 100 µM | > 100 µM
2 | O=C(O)c1ccc(Nc2nc3nn(Cc4ccccc4)cc3c(=O)s2)cc1 | – | > 100 µM | > 100 µM | – | – | > 100 µM | – | > 100 µM | – | > 100 µM | –
3 | N#Cc1c(-c2ccccc2)cc(Nc2ccc(Cl)cc2)n2c1nc1ccccc12 | > 100 µM | > 100 µM | > 83.6 µM | > 47.4 µM | > 48 µM | > 100 µM | > 100 µM | 4.98 µM | > 30.7 µM | 97.5 µM | > 43 µM
4 | COc1ccc2c(c1OC)C(=O)O[C@@H]2[C@H]1c2c(cc3c(c2OC)OCO3)CCN1C | > 100 µM | > 100 µM | > 100 µM | > 100 µM | > 100 µM | > 100 µM | > 100 µM | > 100 µM | > 100 µM | > 100 µM | > 100 µM
5 | COCOc1cc(OC)ccc1C/C(=N/O)C(=O)OC | > 100 µM | > 100 µM | > 100 µM | > 100 µM | > 100 µM | > 100 µM | > 100 µM | > 100 µM | > 100 µM | > 100 µM | > 100 µM
6 | CC(=O)NC1(C)C(C)C2CC1C(C)C2(C)C (stereo unspecified) | > 100 µM | > 100 µM | – | > 100 µM | > 100 µM | > 100 µM | > 100 µM | > 100 µM | > 100 µM | > 100 µM | > 100 µM
7 | CCCCCCCCCC(=O)NC(Cc1ccc(O)cc1)C(=O)NCCCNCCCCNCCCNC(=O)[C@@H](N)CCCN=C(N)N (stereo partly specified) | – | – | – | – | – | 74.5 µM | – | 35.7 µM | – | – | –
8 | O=C1C(Cl)=C(NCCF)C(=O)c2ncccc21 | 2.68 µM | 3.24 µM | 4.23 µM | 4 µM | 3.09 µM | 3.43 µM | 2.99 µM | 2.56 µM | – | 2.8 µM | 4.25 µM
9 | COc1ccc(CCN2C(=O)CC34C=CC(CC3C2=O)O4)cc1OC (stereo unspecified) | > 100 µM | – | > 100 µM | > 100 µM | > 100 µM | > 100 µM | > 100 µM | > 100 µM | > 100 µM | > 100 µM | > 100 µM
10 | Cc1nc(Nc2ccc(Cl)c(Cl)c2)sc1C(=O)/C=C/c1ccc2c(c1)OCO2 | > 100 µM | 29.3 µM | – | – | – | > 100 µM | 46.1 µM | 97.4 µM | 32.6 µM | 49 µM | > 100 µM
11 | C[n+]1ccccc1/C1=c2\cc/c([nH]2)=C(\c2cccc[n+]2C)C2=N/C(=C(/c3cccc[n+]3C)C3C=CC(N3)/C(c3cccc[n+]3C)=C3/C=CC1=N3)C=C2 | > 100 µM | > 100 µM | > 100 µM | – | > 100 µM | > 100 µM | > 100 µM | > 100 µM | > 100 µM | > 100 µM | > 100 µM
12 | O=c1[nH]c(=O)n([C@@H]2O[C@H](CO)[C@@H](O)[C@@H]2F)cc1I | > 100 µM | > 100 µM | – | > 100 µM | – | > 100 µM | > 100 µM | > 100 µM | > 100 µM | > 100 µM | > 100 µM
13 | Cc1ccc(C2C(Cl)C(=O)N2NC(=O)c2ccc(N)cc2)cc1 (stereo unspecified) | 31.4 µM | – | 19.8 µM | – | – | 25.2 µM | – | 29.7 µM | 38.3 µM | 28.3 µM | –
14 | O=C1/C(=C/c2ccccc2)CCCc2ccccc21 | 28.6 µM | – | 29.9 µM | 39.1 µM | 35.1 µM | 38.8 µM | 36 µM | – | 76.2 µM | 29.1 µM | –
15 | CC(=O)NC1=C(N)C(=O)c2ccccc2C1=O | > 100 µM | > 100 µM | > 100 µM | – | – | > 100 µM | – | > 100 µM | > 100 µM | > 100 µM | –
16 | CC(=O)n1nc(-c2ccc3ccccc3c2)nc1C | > 100 µM | > 100 µM | > 100 µM | > 100 µM | > 100 µM | > 100 µM | > 100 µM | > 100 µM | > 100 µM | – | > 100 µM
17 | CCC(=O)Nc1ccc(NCC(=O)Nc2ccc(OC)cc2)cc1 | 56.7 µM | 35.2 µM | 38.5 µM | – | 89.9 µM | 78 µM | 51.6 µM | 32.7 µM | > 100 µM | – | 70.1 µM
18 | Cc1ccc(S(=O)(=O)NC(=O)NC(CCC(N)=O)C(=O)O)cc1 (stereo unspecified) | > 100 µM | > 100 µM | > 100 µM | > 100 µM | > 100 µM | > 100 µM | > 100 µM | > 100 µM | – | > 100 µM | > 100 µM
19 | OC12CCC3(O)c4ccccc4C3C1c1ccccc12 (stereo unspecified) | > 100 µM | > 100 µM | > 100 µM | – | – | – | – | > 100 µM | – | > 100 µM | –
20 | CNC(=S)/C(C#N)=C(\N)N1CCCC1 | > 100 µM | > 100 µM | > 100 µM | > 100 µM | > 100 µM | > 100 µM | – | > 100 µM | > 100 µM | > 100 µM | > 100 µM
21 | NCCCCC(NC(=O)C(N)Cc1ccc(O)cc1)C(=O)NC(Cc1ccc(O)cc1)C(=O)NC(CCCCN)C(=O)ON1C(=O)CCC1=O (stereo unspecified) (H-YKYK-OSu; configuration not given here) | > 100 µM | > 100 µM | > 100 µM | > 100 µM | > 100 µM | > 100 µM | > 100 µM | > 100 µM | – | > 100 µM | > 100 µM
22 | C1=NCCOCCN=Cc2ccc(cc2)OCc2cccc(n2)COc2ccc1cc2 | > 100 µM | > 100 µM | > 100 µM | > 100 µM | > 100 µM | > 100 µM | > 100 µM | – | – | > 100 µM | –
